Results reported in patent publication US20140057895A1, “INDAZOLE- AND PYRROLOPYRIDINE-DERIVATIVE AND PHARMACEUTICAL USE THEREOF” (priority 2011, published 2014).
pEC50, pIC50: −log10 of the molar value. Where a name gives a salt, the structure may show the parent alone. Read-outs that look alike come from different tables or passages of the source.

How the values were obtained:
5-HT4 receptor = target: T1, 5-HT4 receptor (Cavia porcellus, UniProt O70528); experiment: Test Example 3: Guinea pig 5-HT4 receptor binding assay, [3H]-GR113808, striatum membranes (Table 98)
T1 construct: striatum was isolated which was cryopreserved at −80° C. until use; from tissue; host or cells: guinea pig (Slc-Hartley) striatum membranes
Procedure: The guinea pig 5-HT4 receptor binding assay and preparations of receptor membrane preparations herein were carried out according to a method of Grossman et al. [see, British J. Pharmacol., (1993) 109, 618].
Slc-Hartley guinea pigs (body weight 300 g to 400 g) were decapitated to remove brain rapidly, and striatum was isolated which was cryopreserved at −80° C. until use. To the obtained tissues were added fifteen fold of Hepes buffer (50 mM, pH 7.4, 4° C.), and the mixture was homogenized by Teflon (trademark) homogenizer and centrifuged at 48,000×g (4° C.) for 15 minutes. To the resulting precipitate was added Hepes buffer (1 ml) to 30 mg by wet weight of tissues, and the mixture was suspended to give receptor membrane preparations.
To an assay tube were added 0.1 nM [^3H]-GR113808 {chemical name: [1-[2-(methylsulfonylamino) ethyl]-4-piperidinyl]methyl 1-methylindole-3-carboxylate}, receptor membrane preparations, and Hepes buffer (50 mM, pH 7.4, 4° C., 1 ml) containing test compounds or 30 μM serotonin; and the mixture was incubated at 37° C. for 30 minutes. On quenching the reaction, the mixture was rapidly filtered on whatman GF/B filter, which was presoaked in 0.1% polyethyleneimine for 1 hour, by using Brandel cell Harvester, and washed with ice-cooled 50 mM Tris-HCl (pH 7.7, 4 ml) three times. To the filter after filtration was added a liquid scintillator (Ecoscint), and then a radioactivity was determined by a liquid scintillation counter.
50% Inhibition concentrations (IC50) were determined from inhibition rates of test compounds to specific bindings which were obtained by subtracting nonspecific bindings from total binding amounts of [^3H]-GR113808. […]

human 5-HT4b receptor = target: T2, human 5-HT4b receptor (Homo sapiens, UniProt Q13639); experiment: Test Example 4: Serotonin 4 (5-HT4) receptor agonist activity assay, cAMP HTRF in CHO cells (Table 100); assay type: cell-based; details: mean value; for Emax: CHO, 0.25 h, intrinsic activity, maximal activity of 5-HT defined as 100%, read-out: IA (%); for pEC50: concentration showing 50% of IA
T2 construct: expressed in transfected cells; host or cells: CHO cells (G418 selection)
Procedure: The cAMP measurement test used herein was carried out by using CISBIO HTRF (trademark) cAMP Hirange kit according to the manufacturer's instructions attached therewith.
CHO cells expressing human 5-HT4b receptor were incubated in Medium 1 [DMEM/1% NEAA, 1% penicillin/streptomycin (P/S), 0.2 mg/mL GENETICIN (G418), 10% FBS] at 37° C. under 5% CO2 condition. Then, the cells were put into Medium 2 (DMEM/10000 cut FBS, G-418, P/S, NEAA) for 1 to 2 hours, and collected by treating with trypsin containing EDTA. The collected cells were suspended in Assay Buffer 1 [100 mM Hanks/HEPES buffer (pH 7.4)], the suspended cells were mixed with the testing compound on 384-well plates, and the cells were incubated at 31° C. for 15 minutes. To the cells were added cAMP-cryptate solution and cAMP-d2 solution, and they were incubated at room temperature for 1 hour. Then, time-resolved fluorescence was measured by En Vision (excitation wavelength: 330 nm, fluorescence wavelength: 620/665 nm).
An intrinsic activity of the compound [IA (%)] and a concentration showing 50% of IA [EC50 (nM)] were calculated from the obtained results. In particular, the intrinsic activity (IA) was calculated on the basis of the maximal activity of 5-HT (measured from 10^−11 M to 10^−7 M) defined as 100%.
In the following table, the compounds used in the test are shown in numbers which correspond to the Example numbers above where the preparations of the compounds are described.

[1] = Guinea pig 5-HT4 receptor binding assay, [3H]-GR113808, striatum membranes, mean value of each group, read-out: IC50

T2 sequence (Q13639 whole entry): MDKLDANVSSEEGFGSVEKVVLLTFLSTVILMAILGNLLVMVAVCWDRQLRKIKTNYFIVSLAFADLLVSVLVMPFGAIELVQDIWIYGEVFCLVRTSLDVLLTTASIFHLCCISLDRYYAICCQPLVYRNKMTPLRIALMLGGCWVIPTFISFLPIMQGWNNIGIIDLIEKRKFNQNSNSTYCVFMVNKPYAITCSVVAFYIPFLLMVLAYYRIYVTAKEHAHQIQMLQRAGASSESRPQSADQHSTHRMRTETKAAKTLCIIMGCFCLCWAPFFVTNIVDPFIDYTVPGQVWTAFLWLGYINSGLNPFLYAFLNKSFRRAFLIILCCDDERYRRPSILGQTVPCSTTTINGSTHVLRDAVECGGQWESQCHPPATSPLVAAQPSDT
T1 sequence (O70528 whole entry): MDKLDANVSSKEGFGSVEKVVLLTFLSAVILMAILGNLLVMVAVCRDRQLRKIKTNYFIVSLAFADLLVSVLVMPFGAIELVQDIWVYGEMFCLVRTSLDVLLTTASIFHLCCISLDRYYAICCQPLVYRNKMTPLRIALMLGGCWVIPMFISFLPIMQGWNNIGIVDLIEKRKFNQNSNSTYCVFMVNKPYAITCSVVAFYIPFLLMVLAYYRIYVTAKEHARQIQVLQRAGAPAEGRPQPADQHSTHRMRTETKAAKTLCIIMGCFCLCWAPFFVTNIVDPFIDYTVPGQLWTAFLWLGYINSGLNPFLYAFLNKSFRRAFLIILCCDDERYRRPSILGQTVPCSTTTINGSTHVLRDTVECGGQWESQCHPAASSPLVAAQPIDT

SMILES | pIC50 (5-HT4 receptor; [1]) | Emax (human 5-HT4b receptor) [%] | pEC50 (human 5-HT4b receptor) | pIC50 (5-HT4 receptor)
CCc1nn(-c2noc(C3CCN(CC4CN(C(=O)COC)C4)CC3)n2)c2c(F)c(F)ccc12 [Example 469, 1-[3-({4-[3-(3-ethyl-6,7-difluoro-1H-indazol-1-yl)-1,2,4-oxadiazol-5-yl]piperidin-1-yl}methyl)azetidin-1-yl]-2-methoxyethanone trifluoroacetate] | 7.69 | 68.8 | 8.28 | –
CCc1nn(-c2noc(C3CCN(C4CCCC4)CC3)n2)c2c(F)c(F)ccc12 [Example 447, 1-[5-(1-cyclopentylpiperidin-4-yl)-1,2,4-oxadiazol-3-yl]-3-ethyl-6,7-difluoro-1H-indazole-trifluoroacetate] | > 7.70 | 56.8 | 7.91 | –
CCc1nn(-c2noc(C3CCN(C[C@@H]4CCN(S(C)(=O)=O)C4)CC3)n2)c2c(F)cccc12 [Example 203, 3-ethyl-7-fluoro-1-[5-(1-{[(3S)-1-(methylsulfonyl)pyrrolidin-3-yl]methyl}piperidin-4-yl)-1,2,4-oxadiazol-3-yl]-1H-indazole] | > 7.70 | 71.8 | 8.96 | –
COCC(=O)N1CC(CN2CCC(c3nc(-n4nc(C(C)C)c5ccc(F)c(F)c54)no3)CC2)C1 [Example 473, 1-{3-[(4-{3-[6,7-difluoro-3-(propan-2-yl)-1H-indazol-1-yl]-1,2,4-oxadiazol-5-yl}piperidin-1-yl)methyl]azetidin-1-yl}-2-methoxyethanone trifluoroacetate] | 7.62 | 58.5 | 7.64 | –
CC(C)c1nn(-c2noc(C3(O)CCN(C4CCN(C(=O)CO)CC4)CC3)n2)c2c(F)cccc12 [Example 551, 1-(4-{3-[7-fluoro-3-(propan-2-yl)-1H-indazol-1-yl]-1,2,4-oxadiazol-5-yl}-4-hydroxy-1,4′-bipiperidin-1′-yl)-2-hydroxyethanone] | – | 70.4 | 7.73 | 7.09
CCc1nn(-c2noc(C3CCN(CC4CN(C(C)=O)C4)CC3)n2)c2c(F)c(F)ccc12 [Example 468, 1-[3-({4-[3-(3-ethyl-6,7-difluoro-1H-indazol-1-yl)-1,2,4-oxadiazol-5-yl]piperidin-1-yl}methyl)azetidin-1-yl]ethanone trifluoroacetate] | > 7.70 | 69.8 | 7.65 | –
CCc1nn(-c2noc(C3CCN(C(C)C)CC3)n2)c2c(F)c(F)ccc12 [Example 445, 3-ethyl-6,7-difluoro-1-{5-[1-(propan-2-yl)piperidin-4-yl]-1,2,4-oxadiazol-3-yl}-1H-indazole trifluoroacetate] | > 7.70 | 52.1 | 7.88 | –
CCc1nn(-c2noc(C3CCN(C[C@@H]4CCN(C(=O)COC)C4)CC3)n2)c2c(F)cccc12 [Example 202, 1-[(3S)-3-({4-[3-(3-ethyl-7-fluoro-1H-indazol-1-yl)-1,2,4-oxadiazol-5-yl]piperidin-1-yl}methyl)pyrrolidin-1-yl]-2-methoxyethanone] | > 7.70 | 39 | 8.24 | –

The next lines start with results.

pIC50 (5-HT4 receptor; [1]) | Emax (human 5-HT4b receptor) [%] | pEC50 (human 5-HT4b receptor) | SMILES | pIC50 (5-HT4 receptor)
> 7.70 | 68.2 | 8.12 | CCc1nn(-c2noc(C3CCN(C4CCN(C(=O)OC)CC4)CC3)n2)c2c(F)c(F)ccc12 [Example 459, methyl 4-[3-(3-ethyl-6,7-difluoro-1H-indazol-1-yl)-1,2,4-oxadiazol-5-yl]-1,4′-bipiperidine-1′-carboxylate trifluoroacetate] | –
7.17 | 61 | 7.87 | CC(=O)N1CCC(CN2CCC(c3nc(-n4nc(C(C)C)c5ccccc54)no3)CC2)CC1 [Example 475, 1-{4-[(4-{3-[3-(propan-2-yl)-1H-indazol-1-yl]-1,2,4-oxadiazol-5-yl}piperidin-1-yl)methyl]piperidin-1-yl}ethanone trifluoroacetate] | –
> 7.70 | 65.5 | 8.36 | CCc1nn(-c2noc(C3CCN(C4CCN(C(=O)COC)CC4)CC3)n2)c2c(F)c(F)ccc12 [Example 461, 1-{4-[3-(3-ethyl-6,7-difluoro-1H-indazol-1-yl)-1,2,4-oxadiazol-5-yl]-1,4′-bipiperidin-1′-yl}-2-methoxyethanone trifluoroacetate] | –
> 7.70 | 95.5 | 8.92 | CC(C)c1nn(-c2noc(C3CCN(C[C@H]4CCCN4C(=O)CO)CC3)n2)c2c(F)cccc12 [Example 529, 1-{(2R)-2-[(4-{3-[7-fluoro-3-(propan-2-yl)-1H-indazol-1-yl]-1,2,4-oxadiazol-5-yl}piperidin-1-yl)methyl]pyrrolidin-1-yl}-2-hydroxyethanone hydrochloride] | –
7.18 | 85.4 | 8.57 | CC(=O)N1CCC(N2CCC(c3nc(-n4nc(C(C)C)c5ccccc54)no3)CC2)CC1 [Example 458, 1-(4-{3-[3-(propan-2-yl)-1H-indazol-1-yl]-1,2,4-oxadiazol-5-yl}-1,4′-bipiperidin-1′-yl)ethanone trifluoroacetate] | –
7.13 | 85.6 | 8.09 | CC(C)c1nn(-c2noc(C3CCN(C4CCC4)CC3)n2)c2ccccc12 [Example 420, 1-[5-(1-cyclobutylpiperidin-4-yl)-1,2,4-oxadiazol-3-yl]-3-(propan-2-yl)-1H-indazole trifluoroacetate] | –
> 7.70 | 78.6 | 8.28 | CCc1nn(-c2noc(C3CCN(C4CCN(C(C)=O)CC4)CC3)n2)c2c(F)c(F)ccc12 [Example 460, 1-{4-[3-(3-ethyl-6,7-difluoro-1H-indazol-1-yl)-1,2,4-oxadiazol-5-yl]-1,4′-bipiperidin-1′-yl}ethanone trifluoroacetate] | –
7.63 | 70.5 | 8.05 | COC(=O)N1CCC(CN2CCC(c3nc(-n4nc(C(C)C)c5ccc(F)c(F)c54)no3)CC2)CC1 [Example 482, methyl 4-[(4-{3-[6,7-difluoro-3-(propan-2-yl)-1H-indazol-1-yl]-1,2,4-oxadiazol-5-yl}piperidin-1-yl)methyl]piperidine-1-carboxylate trifluoroacetate] | –
> 7.70 | 84 | 8.41 | CC(=O)N1CCC(N2CC[C@@H](Cc3nc(-n4nc(C(C)C)c5cccc(F)c54)no3)C2)CC1 [Example 507, 1-{4-[(3S)-3-({3-[7-fluoro-3-(propan-2-yl)-1H-indazol-1-yl]-1,2,4-oxadiazol-5-yl}methyl)pyrrolidin-1-yl]piperidin-1-yl}ethanone] | –
7.53 | 54.3 | 7.33 | CC(=O)N1CC(CN2CCC(c3nc(-n4nc(C(C)C)c5ccc(F)c(F)c54)no3)CC2)C1 [Example 472, 1-{3-[(4-{3-[6,7-difluoro-3-(propan-2-yl)-1H-indazol-1-yl]-1,2,4-oxadiazol-5-yl}piperidin-1-yl)methyl]azetidin-1-yl}ethanone trifluoroacetate] | –
> 7.70 | 73.8 | 8.15 | COCC(=O)N1CCC(CN2CCC(c3nc(-n4nc(C(C)C)c5ccc(F)c(F)c54)no3)CC2)CC1 [Example 481, 1-{4-[(4-{3-[6,7-difluoro-3-(propan-2-yl)-1H-indazol-1-yl]-1,2,4-oxadiazol-5-yl}piperidin-1-yl)methyl]piperidin-1-yl}-2-methoxyethanone trifluoroacetate] | –
